We go through two compounds from US20250213701A1, “MEDICAMENT FOR TREATING HUMAN TUMOR BASED ON ERF3A-TARGETING PROTEOLYSIS MECHANISM” (SUZHOU DEGEN BIO-MEDICAL CO., LTD., priority 2022, published 2025).

One test deals with PC-3 cells. The test can be described thus: Anti-proliferative toxicity against prostate cancer cell line PC-3 (CCK8). The following applies: Homo sapiens, 72 h, 3 days. It counts as cell-based, human. Summed up:
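PC-3 cells (4000/well, pre-cultured 24 h) exposed in triplicate to compound at final 0.00001-1.0 μM for 3 days at 37 °C, 5% CO2. Viability read by CCK8, 1-4 h at 37 °C, absorbance at 450 nm.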

A further test concerns 22Rv1 cells. The test can be described thus: Anti-proliferative toxicity against prostate cancer cell line 22Rv1 (CCK8). It counts as cell-based, human. To be noted: 3 days; for IC50: Homo sapiens, 72 h, CCK8. Summed up:
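22Rv1 cells pre-cultured for 48 h, then exposed to compounds at 0.00001-1.0 μM final, in triplicate, for 3 days. Viability read by CCK8 absorbance at 450 nm after 1-4 h at 37 °C.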

The subject of a further test is BxPC-3 cells. The test can be described thus: Anti-proliferative toxicity of C63 in tumor cell lines (CCK8): BxPC-3. The format is cell-based. To be noted: Homo sapiens, 72 h, 3 days, read-out: Inhibition rate. As for the experimental part: Example 83: Detection of Anti-Proliferative Toxicity of C63 in Some Tumor Cell Lines
BxPC-3 cells (purchased from the Cell Bank of the Chinese Academy of Sciences, Cat. No. TCHu12) were subcultured in a culture medium (RPMI-1640 medium+1% penicillin-streptomycin dual-antibiotic solution+10% fetal bovine serum) in an incubator at 5% carbon dioxide and 37° C.
BxPC-3 cells were seeded at 3000 cells/well (90 μL) on a 96-well plate and cultured for 24 h.
10 mM compound stock solutions were prepared in DMSO.
The compound stock solution was diluted with DMSO to give DMSO solutions 1-9 at concentrations of 0 μM, 2500 μM, 500 μM, 100 μM, 20 μM, 4 μM, 0.8 μM, 0.16 μM, and 0.032 μM.
2 μL of each of solutions 1-9 was added to 98 μL of the medium to give mixed solutions 11-19 of the compound and the medium.
10 μL of each of solutions 11-19 was added to the above cell seed solution to give a total volume of 100 μL (90 μL+10 μL).
The concentrations of the compound in the wells were 0 μM, 5.0 μM, 1.0 μM, 0.2 μM, 0.04 μM, 0.008 μM, 0.0016 μM, 0.00032 μM, and 0.000064 μM. All concentrations were in triplicate.
After the above-treated cells were cultured for 3 days, 10 μL of the CCK8 solution (DOJINDO, Cat. No. PF725) was added to each well. The plate was incubated in an incubator at 37° C. for 1-4 h and then detected on a microplate reader for the reading at 450 nm.

Another test relates to VCaP cells. In words: Anti-proliferative toxicity against prostate cancer cell line Vcap (CCK8). The format is cell-based, human. To be noted: 3 days; for IC50: Homo sapiens, 72 h, CCK8. Put shortly:
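VCaP cells (DMEM, 10% FBS) seeded 20000 cells/well, cultured 72 h, then exposed in triplicate to compound at final well concentrations of 0.00001–0.16 μM for 3 days at 37 °C, 5% CO2. Viability by CCK8, 1–4 h at 37 °C, absorbance at 450 nm.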

As usually defined, the IC50 is the concentration that gives 50% inhibition. A high value points to weaker potency in that assay. In general, inhibition refers to the change of the read-out against control, counted positive when it falls. With `C[C@]12C=CC(=O)N[C@@H]1CC[C@@H]1[C@@H]2CC[C@]2(C)[C@@H](C(=O)Nc3cccc(N[C@@H]4CCC[C@@H](Nc5cccc6c5C(=O)N([C@H]5CCC(=O)NC5=O)C6=O)C4)c3)CC[C@@H]12` [C63, N-(3-(N—(N-(4-(2-(3S-(2,6-dioxopiperidine))-isoindole-1,3-dione))-1R,3R-cyclohexanediamine))phenyl)-3-oxo-4-aza-5α-androst-1-ene-17β-carboxamide], the IC50 in the test on PC-3 cells was 100 to 10000 pM; with 22Rv1 cells it was 100 to 10000 pM; in the test with VCaP cells it was ≤ 100 pM. The “Anti-proliferative toxicity data in 22Rv1 cells” value in the test on 22Rv1 cells (0.00001 μM) came to 23.5%; with 22Rv1 cells (0.00006 μM), 62.4%; with 22Rv1 cells (0.00032 μM), 76.5%; in the test with 22Rv1 cells (0.00160 μM) it was 87.8%; with 22Rv1 cells (0.00800 μM) it was 86.5%; with 22Rv1 cells (0.04000 μM), 88.0%. Further, the “Anti-proliferative toxicity data in 22Rv1 cells” value in the test on 22Rv1 cells (0.20000 μM) is on record as 86.9%; in the test with 22Rv1 cells (1.00000 μM), 84.5%. The inhibition at 64 pM with BxPC-3 cells (0.000064 μM) is 3.64%. The inhibition at 0.00032 µM in the test with BxPC-3 cells (0.000320 μM) is 22.6%. Moreover, the inhibition at 0.0016 µM in the test with BxPC-3 cells (0.001600 μM) is 56.5%. The inhibition at 0.008 µM with BxPC-3 cells (0.008000 μM) is 68.2%. Besides, the inhibition at 0.04 µM in the test on BxPC-3 cells (0.040000 μM) was 71.6%. For the same compound, the inhibition at 0.2 µM in the test with BxPC-3 cells (0.200000 μM) is 72.9%. For the same compound, the inhibition at 1 µM in the test on BxPC-3 cells (1.000000 μM) amounted to 76.5%. Moreover, the inhibition at 5 µM in the test on BxPC-3 cells (5.000000 μM) came out at 80.2%. In addition, the “Anti-proliferative toxicity data in VCaP cells” value in the test on VCaP cells (0.00001 μM) was found to be 25.2%; in the test with VCaP cells (0.00005 μM), 75.7%; in the test with VCaP cells (0.00010 μM) it was 80.2%; in the test on VCaP cells (0.00030 μM) it was 89.2%; in the test with VCaP cells (0.00100 μM), 93.1%; with VCaP cells (0.00300 μM) it was 94.0%. The results for the “Anti-proliferative toxicity data in VCaP cells” value in the test on VCaP cells (0.00600 μM), in the test with VCaP cells (0.03200 μM) and in the test with VCaP cells (0.16000 μM) were 94.3%, 94.5% and 94.8%, respectively.
On to `C[C@]12C=CC(=O)N[C@@H]1CC[C@@H]1[C@@H]2CC[C@]2(C)[C@@H](C(=O)Nc3cccc(N[C@@H]4CCC[C@@H](Nc5cccc6c5C(=O)N(C5CCC(=O)NC5=O)C6=O)C4)c3)CC[C@@H]12` (stereo partly drawn) [C59, N-(3-(N—(N-(4-(2-(3-(2,6-dioxopiperidine))-isoindole-1,3-dione))-1R,3R-cyclohexanediamine))phenyl)-3-oxo-4-aza-5α-androst-1-ene-17β-carboxamide], for which the values for the concentration for half-maximal inhibition (IC50) in the test with PC-3 cells, in the test on 22Rv1 cells and in the test on VCaP cells were 100 to 10000 pM, 100 to 10000 pM and ≤ 100 pM, respectively. Moreover, the “Anti-proliferative toxicity data in 22Rv1 cells” value with 22Rv1 cells (0.00001 μM) turned out to be 8.3%; in the test with 22Rv1 cells (0.00006 μM), 41.3%; in the test on 22Rv1 cells (0.00032 μM), 79.6%; with 22Rv1 cells (0.00160 μM) it was 80.7%; in the test with 22Rv1 cells (0.00800 μM), 81.1%; with 22Rv1 cells (0.04000 μM), 81.1%. Besides, the “Anti-proliferative toxicity data in 22Rv1 cells” value is 81.9% in the test on 22Rv1 cells (0.20000 μM) and 82.3% in the test on 22Rv1 cells (1.00000 μM). Moreover, the “Anti-proliferative toxicity data in VCaP cells” value with VCaP cells (0.00001 μM) is listed as 0.6%; in the test on VCaP cells (0.00005 μM), 62.5%; in the test with VCaP cells (0.00010 μM) it was 78.6%; in the test on VCaP cells (0.00030 μM) it was 88.3%; in the test on VCaP cells (0.00100 μM), 92.7%; in the test on VCaP cells (0.00300 μM), 93.5%. The “Anti-proliferative toxicity data in VCaP cells” value with VCaP cells (0.00600 μM) came to 94.1%; in the test on VCaP cells (0.03200 μM), 94.6%; in the test with VCaP cells (0.16000 μM) it was 94.6%.
